Results taken from patent publication US7947717B2 (priority 2008, dated 2011).
Where two headings read alike, the source gives them in different places.

Assays:
lethal factor (LF) = lethal factor (LF) (Bacillus anthracis, UniProt P15917); assay: biochemical; format: biochemical
BoNT A = BoNT A (Clostridium botulinum, UniProt P0DPI0); assay: biochemical
BoNT A, sequence (P0DPI0 whole entry, looked up): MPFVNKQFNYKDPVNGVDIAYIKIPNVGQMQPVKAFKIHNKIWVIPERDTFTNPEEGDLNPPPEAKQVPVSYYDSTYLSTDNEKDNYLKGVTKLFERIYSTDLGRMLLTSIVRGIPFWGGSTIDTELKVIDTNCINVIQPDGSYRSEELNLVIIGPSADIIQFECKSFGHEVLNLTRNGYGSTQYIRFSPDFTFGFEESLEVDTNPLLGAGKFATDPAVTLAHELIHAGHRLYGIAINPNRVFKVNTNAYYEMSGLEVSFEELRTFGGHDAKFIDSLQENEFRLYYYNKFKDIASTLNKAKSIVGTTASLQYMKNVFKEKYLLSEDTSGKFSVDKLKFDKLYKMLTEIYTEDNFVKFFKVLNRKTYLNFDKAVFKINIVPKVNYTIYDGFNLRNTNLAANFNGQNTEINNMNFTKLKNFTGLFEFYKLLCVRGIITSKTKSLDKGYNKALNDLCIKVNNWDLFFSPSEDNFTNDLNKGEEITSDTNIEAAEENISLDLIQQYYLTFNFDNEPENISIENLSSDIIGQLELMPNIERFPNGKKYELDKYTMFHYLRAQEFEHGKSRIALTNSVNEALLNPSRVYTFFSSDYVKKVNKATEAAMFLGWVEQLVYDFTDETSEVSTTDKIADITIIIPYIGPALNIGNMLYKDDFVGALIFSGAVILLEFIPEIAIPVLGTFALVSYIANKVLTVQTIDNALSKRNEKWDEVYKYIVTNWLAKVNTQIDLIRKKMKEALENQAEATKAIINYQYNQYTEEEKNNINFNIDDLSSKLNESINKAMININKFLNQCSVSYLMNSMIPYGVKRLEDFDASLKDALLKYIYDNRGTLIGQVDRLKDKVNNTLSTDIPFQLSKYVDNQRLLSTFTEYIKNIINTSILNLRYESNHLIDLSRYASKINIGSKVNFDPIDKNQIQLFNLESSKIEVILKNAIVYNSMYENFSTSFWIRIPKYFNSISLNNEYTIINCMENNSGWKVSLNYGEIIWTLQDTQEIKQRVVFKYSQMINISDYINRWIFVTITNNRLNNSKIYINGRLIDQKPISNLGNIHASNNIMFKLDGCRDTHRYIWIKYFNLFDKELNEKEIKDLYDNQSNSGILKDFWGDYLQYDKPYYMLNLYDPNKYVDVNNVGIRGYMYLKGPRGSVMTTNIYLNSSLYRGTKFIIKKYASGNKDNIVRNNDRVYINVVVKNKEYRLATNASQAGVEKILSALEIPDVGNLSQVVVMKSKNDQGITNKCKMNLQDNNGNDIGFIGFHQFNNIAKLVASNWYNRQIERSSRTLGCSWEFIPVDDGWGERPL

lethal factor (LF), sequence (P15917 34-809 limits assumed): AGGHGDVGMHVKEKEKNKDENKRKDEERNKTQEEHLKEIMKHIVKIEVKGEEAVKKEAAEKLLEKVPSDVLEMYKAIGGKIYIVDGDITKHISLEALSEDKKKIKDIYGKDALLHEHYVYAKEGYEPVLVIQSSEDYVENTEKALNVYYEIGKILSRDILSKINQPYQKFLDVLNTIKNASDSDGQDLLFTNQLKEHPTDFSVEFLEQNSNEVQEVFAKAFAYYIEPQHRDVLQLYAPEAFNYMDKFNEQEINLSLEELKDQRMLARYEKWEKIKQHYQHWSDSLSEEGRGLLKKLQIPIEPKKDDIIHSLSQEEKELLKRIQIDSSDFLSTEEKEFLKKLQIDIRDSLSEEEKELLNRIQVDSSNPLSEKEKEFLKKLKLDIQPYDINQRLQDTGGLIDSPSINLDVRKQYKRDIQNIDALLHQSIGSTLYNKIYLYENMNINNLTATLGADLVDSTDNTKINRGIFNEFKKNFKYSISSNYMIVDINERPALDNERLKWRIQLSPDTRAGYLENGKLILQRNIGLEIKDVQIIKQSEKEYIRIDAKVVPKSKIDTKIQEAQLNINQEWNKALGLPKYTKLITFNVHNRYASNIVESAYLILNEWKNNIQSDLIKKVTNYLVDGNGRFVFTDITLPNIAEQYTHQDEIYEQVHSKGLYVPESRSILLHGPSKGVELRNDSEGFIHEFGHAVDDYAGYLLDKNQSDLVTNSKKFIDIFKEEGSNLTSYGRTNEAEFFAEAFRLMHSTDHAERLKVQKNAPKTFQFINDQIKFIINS

In the case of `O=C(O)CN1C(=O)/C(=C/c2c[nH]nc2-c2ccc(C(F)(F)F)cc2)SC1=S` [Compound 27, (Z)-2-(4-oxo-2-thioxo-5-((3-(4-(trifluoromethyl)phenyl)-1H-pyrazol-4-yl)methylene)thiazolidin-3-yl)acetic acid], the IC50 (lethal factor (LF)) is reported as 24.6 µM and the IC50 (BoNT A) is reported as > 200 µM.

In the case of `O=C1/C(=C/c2cn(-c3ccccc3)nc2-c2ccc(S(=O)(=O)N3CCOCC3)cc2)SC(=S)N1CCS(=O)(=O)O` [Compound 42, (Z)-2-(5-((3-(4-(morpholinosulfonyl)phenyl)-1-phenyl-1H-pyrazol-4-yl)methylene)-4-oxo-2-thioxothiazolidin-3-yl)ethanesulfonic acid], the IC50 (lethal factor (LF); pH 7.4, read-out: LF IC50) is reported as 1.86 µM and the IC50 (BoNT A) is reported as 85 µM.

For `Cc1nc(/C=C2\SC(=S)N(CC(=O)O)C2=O)c(C)o1` [Compound 17, (Z)-2-(5-((2,5-dimethyloxazol-4-yl)methylene)-4-oxo-2-thioxothiazolidin-3-yl)acetic acid], the IC50 (lethal factor (LF); pH 7.4, read-out: LF IC50) was 100 µM and the IC50 (BoNT A) was > 200 µM.

In the case of `O=C(O)CN1C(=O)/C(=C/c2ccc(-c3ccccc3)cc2)SC1=S` [Compound 49, (Z)-2-(5-(4-phenylbenzylidene)-4-oxo-2-thioxothiazolidin-3-yl)acetic acid], the IC50 (lethal factor (LF); pH 7.4, read-out: LF IC50) is reported as 6.2 µM and the IC50 (BoNT A) is reported as 54.6 µM.

For `O=C(O)CN1C(=O)/C(=C/c2c[nH]c3ccccc23)SC1=S` [Compound 60, (Z)-2-(5-((1H-indol-3-yl)methylene)-4-oxo-2-thioxothiazolidin-3-yl)acetic acid], the IC50 (lethal factor (LF); pH 7.4, read-out: LF IC50) was 38.7 µM and the IC50 (BoNT A) was > 200 µM.

In the case of `O=C(O)CN1C(=O)/C(=C/c2cccc(N3CCCC3)c2)SC1=S` [Compound 50, (Z)-2-(5-(3-(pyrrolidin-1-yl)benzylidene)-4-oxo-2-thioxothiazolidin-3-yl)acetic acid], the IC50 (lethal factor (LF); pH 7.4, read-out: LF IC50) is reported as 28.1 µM and the IC50 (BoNT A) is reported as > 200 µM.

In the case of `O=C(O)CCC(C(=O)O)N1C(=O)/C(=C/c2ccc(-c3ccc([N+](=O)[O-])cc3)o2)SC1=S` (centres unmarked) [Compound 6], the IC50 (lethal factor (LF); pH 7.4, read-out: LF IC50) is reported as 4.91 µM and the IC50 (BoNT A) is reported as 148 µM.

In the case of `O=C(O)CN1C(=O)/C(=C/c2csc3ccccc23)SC1=S` [Compound 57, (Z)-2-(5-(benzo[b]thiophen-3-ylmethylene)-4-oxo-2-thioxothiazolidin-3-yl)acetic acid], the IC50 (lethal factor (LF); pH 7.4, read-out: LF IC50) is reported as 13 µM and the IC50 (BoNT A) is reported as > 200 µM.

Work on `O=C(O)CN1C(=O)/C(=C/c2cccc3c2oc2ccccc23)SC1=S` [Compound 55, (Z)-2-(5-(dibenzofuran-6-ylmethylene)-4-oxo-2-thioxothiazolidin-3-yl)acetic acid] yielded an IC50 (lethal factor (LF); pH 7.4, read-out: LF IC50) of 2.96 µM and an IC50 (BoNT A) of 160 µM.

`CCOc1ccc(-c2nn(-c3ccccc3)cc2/C=C2\SC(=S)N(CC(=O)O)C2=O)c(C)c1` [Compound 37, (Z)-2-(5-((3-(4-ethoxy-2-methylphenyl)-1-phenyl-1H-pyrazol-4-yl)methylene)-4-oxo-2-thioxothiazolidin-3-yl)acetic acid] gave an IC50 (lethal factor (LF); pH 7.4, read-out: LF IC50) of 4.87 µM and an IC50 (BoNT A) of 130 µM.

For `O=C(O)CN1C(=O)/C(=C/c2c[nH]c3ccc(Br)cc23)SC1=S` [Compound 61, (Z)-2-(5-((5-bromo-1H-indol-3-yl)methylene)-4-oxo-2-thioxothiazolidin-3-yl)acetic acid], the IC50 (lethal factor (LF); pH 7.4, read-out: LF IC50) was 7.04 µM and the IC50 (BoNT A) was > 200 µM.

`COc1ccc(-c2nn(-c3ccccc3)cc2/C=C2\SC(=S)N(CC(=O)O)C2=O)cc1C` [Compound 36, (Z)-2-(5-((3-(4-methoxy-3-methylphenyl)-1-phenyl-1H-pyrazol-4-yl)methylene)-4-oxo-2-thioxothiazolidin-3-yl)acetic acid] was tested, and the IC50 (lethal factor (LF); pH 7.4, read-out: LF IC50) was 3.58 µM and the IC50 (BoNT A) was 127 µM.

`O=C1/C(=C/c2ccc(-c3cccc([N+](=O)[O-])c3)o2)SC(=S)N1CCS(=O)(=O)O` [Compound 9, (Z)-2-(5-((5-(3-nitrophenyl)furan-2-yl)methylene)-4-oxo-2-thioxothiazolidin-3-yl)ethanesulfonic acid] gave a Ki (lethal factor (LF)) of 0.1 µM and an IC50 (lethal factor (LF); pH 7.4, read-out: LF IC50) of 1.09 µM.

With `O=C(O)C(c1ccccc1)N1C(=O)/C(=C/c2ccc(-c3cccc(Cl)c3)o2)SC1=S` (centres unmarked) [Compound 8] the IC50 (lethal factor (LF); pH 7.4, read-out: LF IC50) was 4.34 µM and the IC50 (BoNT A) was 127 µM.

For `O=C(O)CN1C(=O)/C(=C/c2cn(-c3ccccc3)nc2-c2ccc(S(=O)(=O)N3CCOCC3)cc2)SC1=S` [Compound 31], the IC50 (lethal factor (LF); pH 7.4, read-out: LF IC50) was 4.26 µM and the IC50 (BoNT A) was > 200 µM.

For `O=C1/C(=C/c2ccc(-c3cccc(Cl)c3Cl)o2)SC(=S)N1C1CCS(=O)(=O)C1` (centres unmarked) [Compound 14, (5Z)-5-{[5-(2,3-dichlorophenyl)-2-furyl]methylene}-3-(1,1-dioxidotetrahydrothien-3-yl)-2-thioxo-1,3-thiazolidin-4-one], the IC50 (BoNT A) was > 200 µM.

With `O=C(O)CN1C(=O)/C(=C/c2ccc3c(c2)OCO3)SC1=S` [Compound 53, (Z)-2-(5-(benzo[d][1,3]dioxol-5-ylmethylene)-4-oxo-2-thioxothiazolidin-3-yl)acetic acid] the IC50 (lethal factor (LF); pH 7.4, read-out: LF IC50) was 83.3 µM and the IC50 (BoNT A) was > 200 µM.

With `O=C1/C(=C/c2cn(-c3ccccc3)nc2-c2ccc(Cl)cc2)SC(=S)N1C1CCS(=O)(=O)C1` (centres unmarked) [Compound 45, 5-[1-[3-(4-Chloro-phenyl)-1-phenyl-1H-pyrazol-4-yl]-meth-(Z)-ylidene]-3-(1,1-dioxo-tetrahydro-thiophen-3-yl)-2-thioxo-thiazolidin-4-one] the IC50 (BoNT A) was > 200 µM.

`O=C1/C(=C/c2cn(-c3ccccc3)nc2-c2ccccc2)SC(=S)N1C1CCS(=O)(=O)C1` (centres unmarked) [Compound 44, 3-(1,1-Dioxo-tetrahydro-thiophen-3-yl)-5-[1-(1,3-diphenyl-1H-pyrazol-4-yl)-meth-(Z)-ylidene]-2-thioxo-thiazolidin-4-one] was tested, and the IC50 (BoNT A) was > 200 µM.

`O=C1/C(=C/c2cn(-c3ccccc3)nc2-c2ccc(S(=O)(=O)N3CCCCC3)cc2)SC(=S)N1CCS(=O)(=O)O` [Compound 43, (Z)-2-(4-oxo-5-((1-phenyl-3-(4-(piperidin-1-ylsulfonyl)phenyl)-1H-pyrazol-4-yl)methylene)-2-thioxothiazolidin-3-yl)ethanesulfonic acid] gave an IC50 (lethal factor (LF); pH 7.4, read-out: LF IC50) of 2.07 µM and an IC50 (BoNT A) of 20.1 µM.

With `O=C(O)CN1C(=O)/C(=C/c2cccc(-n3cccn3)c2)SC1=S` [Compound 52, (Z)-2-(5-(3-(1H-pyrazol-1-yl)benzylidene)-4-oxo-2-thioxothiazolidin-3-yl)acetic acid] the IC50 (lethal factor (LF); pH 7.4, read-out: LF IC50) was 27.9 µM and the IC50 (BoNT A) was > 200 µM.

With `O=C(O)CN1C(=O)/C(=C/c2cc3nccnc3s2)SC1=S` [Compound 59] the IC50 (lethal factor (LF); pH 7.4, read-out: LF IC50) was 24.9 µM and the IC50 (BoNT A) was > 200 µM.

`CC(C)(C)OC(=O)N1CCC(c2nc(/C=C3\SC(=S)N(CC(=O)O)C3=O)cs2)CC1` [Compound 18, (Z)-2-(5-((2-(1-(tert-butoxycarbonyl)piperidin-4-yl)thiazol-4-yl)methylene)-4-oxo-2-thioxothiazolidin-3-yl)acetic acid] gave an IC50 (lethal factor (LF); pH 7.4, read-out: LF IC50) of 20 µM and an IC50 (BoNT A) of 176 µM.

For `O=C(O)C(c1ccccc1)N1C(=O)/C(=C/c2ccc(-c3ccc(Cl)cc3Cl)o2)SC1=S` (centres unmarked) [Compound 13], the Ki (lethal factor (LF)) was 1 µM, the IC50 (lethal factor (LF); pH 7.4, read-out: LF IC50) was 1.2 µM and the IC50 (BoNT A) was > 200 µM.

For `Cc1nc(-c2ccccc2)c(/C=C2\SC(=S)N(CC(=O)O)C2=O)s1` [Compound 19, (Z)-2-(5-((2-methyl-4-phenylthiazol-5-yl)methylene)-4-oxo-2-thioxothiazolidin-3-yl)acetic acid], the IC50 (lethal factor (LF); pH 7.4, read-out: LF IC50) was 41 µM and the IC50 (BoNT A) was > 200 µM.

Work on `O=C(O)CN1C(=O)/C(=C/c2cn(-c3ccccc3)nc2-c2ccccc2)SC1=S` [Compound 30, (Z)-2-(5-((1,3-diphenyl-1H-pyrazol-4-yl)methylene)-4-oxo-2-thioxothiazolidin-3-yl)acetic acid] yielded an IC50 (lethal factor (LF); pH 7.4, read-out: LF IC50) of 6.25 µM and an IC50 (BoNT A) of 111 µM.

With `O=C(O)CN1C(=O)/C(=C/c2cccc(Br)n2)SC1=S` [Compound 56, (Z)-2-(5-((6-bromopyridin-2-yl)methylene)-4-oxo-2-thioxothiazolidin-3-yl)acetic acid] the IC50 (lethal factor (LF); pH 7.4, read-out: LF IC50) was 58 µM and the IC50 (BoNT A) was > 200 µM.

`CN(CCOc1ccc(CC2SC(=O)NC2=O)cc1)c1ccccn1` (centres unmarked) [Compound 2, 5-(4-(2-(methyl(pyridin-2-yl)amino)ethoxy)benzyl)thiazolidine-2,4-dione, reference compound] was tested, and the “inhibition of LF, kinetic assay (in words)” value (lethal factor (LF)) was “did not appreciably inhibit” and the “inhibition of BoNT A, kinetic assay (in words)” value (BoNT A) was “did not appreciably inhibit”.

`O=C1/C(=C/c2ccc(-c3cccc(Cl)c3)o2)SC(=S)N1CCS(=O)(=O)O` [Compound 10, (Z)-2-(5-((5-(3-chlorophenyl)furan-2-yl)methylene)-4-oxo-2-thioxothiazolidin-3-yl)ethanesulfonic acid] was tested, and the IC50 (lethal factor (LF); pH 7.4, read-out: LF IC50) was 1.7 µM and the IC50 (BoNT A) was 19.9 µM.

`O=C1/C(=C/c2ccc(-c3cc(Cl)ccc3Cl)o2)SC(=S)N1CC1CCCO1` (centres unmarked) [Compound 16, (Z)-5-((5-(2,5-dichlorophenyl)furan-2-yl)methylene)-3-((tetrahydrofuran-2-yl)methyl)-2-thioxothiazolidin-4-one] was tested, and the IC50 (BoNT A) was > 50 µM.

`CN1CCCN(c2ccc(/C=C3\SC(=S)N(CC(=O)O)C3=O)cc2)CC1` [Compound 51] was tested, and the IC50 (BoNT A) was > 50 µM.

`O=C(O)CN1C(=O)/C(=C/c2ccc(-c3ccc([N+](=O)[O-])cc3Cl)o2)SC1=S` [Compound 4] was tested, and the IC50 (lethal factor (LF); pH 7.4, read-out: LF IC50) was 2.1 µM and the IC50 (BoNT A) was 11.8 µM.

`O=C(O)CN1C(=O)/C(=C/c2cn(-c3ccccc3)nc2-c2cccs2)SC1=S` [Compound 29, (Z)-2-(4-oxo-5-((1-phenyl-3-(thiophen-2-yl)-1H-pyrazol-4-yl)methylene)-2-thioxothiazolidin-3-yl)acetic acid] was tested, and the IC50 (lethal factor (LF); pH 7.4, read-out: LF IC50) was 3.07 µM and the IC50 (BoNT A) was 160 µM.

Compound `O=C1/C(=C/c2ccc(-c3ccc(Cl)c(Cl)c3)o2)SC(=S)N1CCS(=O)(=O)O` [Compound 11, (Z)-2-(5-((5-(3,4-dichlorophenyl)furan-2-yl)methylene)-4-oxo-2-thioxothiazolidin-3-yl)ethanesulfonic acid] has an IC50 (lethal factor (LF); pH 7.4, read-out: LF IC50) of 1.78 µM and an IC50 (BoNT A) of 11.1 µM.

With `O=C(O)CN1C(=O)/C(=C/c2cc(-c3ccc(Cl)cc3)[nH]n2)SC1=S` [Compound 28] the IC50 (lethal factor (LF)) was > 100 µM and the IC50 (BoNT A) was > 200 µM.

For `CCOc1ccc(-c2nn(-c3ccccc3)cc2/C=C2\SC(=S)N(CC(=O)O)C2=O)cc1F` [Compound 46, (Z)-2-(5-((3-(4-ethoxy-3-fluorophenyl)-1-phenyl-1H-pyrazol-4-yl)methylene)-4-oxo-2-thioxothiazolidin-3-yl)acetic acid], the IC50 (lethal factor (LF); pH 7.4, read-out: LF IC50) was 3.45 µM and the IC50 (BoNT A) was > 200 µM.

With `O=C1/C(=C/c2ccc(-c3ccc(Cl)cc3)o2)SC(=S)N1CCS(=O)(=O)O` [Compound 12, (Z)-2-(5-((5-(4-chlorophenyl)furan-2-yl)methylene)-4-oxo-2-thioxothiazolidin-3-yl)ethanesulfonic acid] the IC50 (BoNT A) was > 200 µM.

Work on `O=C(O)CC(C(=O)O)N1C(=O)/C(=C/c2ccc(-c3ccc(Br)cc3)o2)SC1=S` (centres unmarked) [Compound 5] yielded an IC50 (lethal factor (LF); pH 7.4, read-out: LF IC50) of 3.98 µM and an IC50 (BoNT A) of 51.6 µM.
